Source: patent US10137103B2, “Compositions and methods for the treatment of fatty acid metabolism disorders” (The Children's Hospital of Philadelphia, priority 2015, dated 2018)
Changes are numbered by the printed parent chain.

Legend:
VLCAD [1] = biological target: T1, VLCAD (Mus musculus, UniProt P50544)
T1 sequence (P50544 42-656): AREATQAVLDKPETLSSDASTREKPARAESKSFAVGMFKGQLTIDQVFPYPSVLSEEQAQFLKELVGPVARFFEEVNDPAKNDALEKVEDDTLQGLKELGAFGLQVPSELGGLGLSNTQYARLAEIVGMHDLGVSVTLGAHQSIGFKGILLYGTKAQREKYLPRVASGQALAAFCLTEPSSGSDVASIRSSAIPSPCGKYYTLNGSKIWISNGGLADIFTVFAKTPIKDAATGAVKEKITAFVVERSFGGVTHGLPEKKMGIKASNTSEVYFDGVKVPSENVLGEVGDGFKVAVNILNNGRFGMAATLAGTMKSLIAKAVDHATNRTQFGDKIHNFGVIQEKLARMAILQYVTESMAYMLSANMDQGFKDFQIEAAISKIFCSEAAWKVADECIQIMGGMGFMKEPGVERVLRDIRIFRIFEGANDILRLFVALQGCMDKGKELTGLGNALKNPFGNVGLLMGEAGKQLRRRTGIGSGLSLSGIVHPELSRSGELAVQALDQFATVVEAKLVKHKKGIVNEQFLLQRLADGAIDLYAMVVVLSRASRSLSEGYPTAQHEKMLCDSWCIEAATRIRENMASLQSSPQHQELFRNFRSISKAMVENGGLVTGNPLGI

C238A VLCAD mutant = biological target: T2, C238A VLCAD mutant (Mus musculus, UniProt P50544, C238A); experiment: Hepa 1 to 6 cells expressing FLAG-tagged C238A VLCAD; assay type: cell-based; conditions: same experimental conditions
T2 construct: 3xFLAG (C); mutant made in house by QuikChange) Ex-Mm01013-M14; host or cells: Hepa 1 to 6 cells (mouse hepatocytes)
T2 sequence (P50544 42-656 C238A): T1 sequence (P50544 42-656) with C197A
Source text: The QuikChange® Lightning Site-Directed Mutagenesis Kit (Agilent Technologies) was used to introduce single amino acid mutations in complementary DNA encoding VLCAD. A cysteine-to-alanine mutant at amino acid position 238 was generated with Ex-Mm01013-M14 (hereinafter referred to as pVLCAD-3×FLAG®), a plasmid encoding mouse VLCAD fused to three FLAG® tags in the C-terminal region of the protein (GeneCopoeia), as a template. The forward primer 5′-[…]-3′ (SEQ ID NO: 1) and the reverse primer 5′-[…] […]-3′ (SEQ ID NO: 2) were used to substitute an alanine codon for a cysteine codon in pVLCAD-3×FLAG®, thereby generating pVLCAD-C238A-3×FLAG®. The sequence of both pVLCAD-3×FLAG® and pVLCAD-C238A-3×FLAG® was verified before use in subsequent experiments.
Hepa 1 to 6 cells were grown in Dulbecco's modified Eagle's medium (DMEM) containing 10% fetal bovine serum, 2 mM glutamine, penicillin (100 U/ml), and streptomycin ([…]) at 37° C. in air with 5% CO2. Cells were plated at a density of 5×10^4 cells/cm^2 and cultured under normal conditions for 24 hours. Cells were transfected with FLAG®-tagged wild-type VLCAD or FLAG®-tagged C238A VLCAD with Lipofectamine® 2000 reagent (Life Technologies) according to the protocol provided by the manufacturer. […]

wild-type VLCAD = biological target: T3, wild-type VLCAD (Mus musculus, UniProt P50544); experiment: Hepa 1 to 6 cells expressing FLAG-tagged wild-type VLCAD; assay type: cell-based; conditions: 250 mM GSNO for 30 minutes
T3 construct: 3xFLAG (C); host or cells: Hepa 1 to 6 cells (mouse hepatocytes)
T3 sequence (P50544 42-656): T1 sequence (P50544 42-656)
Protocol: Hepa 1 to 6 cells were grown in Dulbecco's modified Eagle's medium (DMEM) containing 10% fetal bovine serum, 2 mM glutamine, penicillin (100 U/ml), and streptomycin ([…]) at 37° C. in air with 5% CO2. Cells were plated at a density of 5×10^4 cells/cm^2 and cultured under normal conditions for 24 hours. Cells were transfected with FLAG®-tagged wild-type VLCAD or FLAG®-tagged C238A VLCAD with Lipofectamine® 2000 reagent (Life Technologies) according to the protocol provided by the manufacturer. Forty-eight hours after transfection, the growth medium was replaced with serum-free DMEM, and […] freshly prepared GSNO was added for 30 minutes, after which the cells were extensively washed with PBS. Cell lysates were obtained immediately or 60, 120, and 240 minutes after the removal of GSNO. The samples were protected from UV light exposure. Lysates were assayed for protein concentration, and equal amounts of protein per sample were used for organic mercury-assisted capture.
Additional evidence for the functional consequences of S-nitrosylation of VLCAD was obtained in mouse hepatocytes transiently expressing wild-type VLCAD or a point mutant that could not be S-nitrosylated (C238A). […] Upon removal of GSNO from the media and extensive washing, both the abundance of S-nitrosylated VLCAD and the enzymatic-specific activity declined over time (FIGS. 4A and 4B).

VLCAD [2] = biological target: T1, VLCAD; experiment: Fraction of S-nitrosylated VLCAD in liver of ob/ob mice (organomercury resin capture); assay type: in vivo; conditions: treated ob/ob mice
Source text: These findings confirm the MS/MS analysis showing S-nitrosylation of VLCAD in wild-type and GSNO-treated mouse liver but not in PBS-treated ob/ob mouse liver (FIG. 3C). […] This substantial increase in catalytic efficiency can provide efficient removal of fatty acids in ob/ob mouse liver.

VLCAD [3] = biological target: T1, VLCAD; conditions: liver homogenates
ob/ob mice = experiment: Liver and serum triglycerides and liver histology in ob/ob mice; assay type: in vivo, mouse
Source text: Formalin-fixed liver sections were stained with Trichrome Stain Kit (Sigma) according to the manufacturer's instructions. Triglycerides were extracted from liver according to the Folch method (Folch et al. (1957) J. Biol. Chem., 226:497-509). Serum and liver triglyceride concentrations were quantified with a triglyceride quantification kit following the manufacturer's instructions (Abcam). Leptin-deficient mice develop liver steatosis spontaneously under normal chow diet starting at 4 to 5 weeks of life that is characterized by a diminished rate of palmitate oxidation and accumulation of fat droplets in the form of triglycerides within the hepatocytes (Brix et al. (2002) Mol. Genet. Metab., 75:219-226; de Oliveira et al. (2008) J. Am. Coll. Nutr., 27:299-305). […] This significant reduction in the rate of palmitoyl-CoA oxidation indicated a deficiency in mitochondrial β-oxidation of fatty acids. […] GSNO was used to deliver nitric oxide equivalents because of the extensive use of this pharmacological agent in cellular models to modify proteins by S-nitrosylation despite limited cellular permeability (Hara et al. (2005) Nat. Cell Biol., 7:665-674; Chung et al. (2004) Science 304:1328-1331). […] Moreover, the restoration of palmitoyl-CoA oxidation in GSNO-injected ob/ob mice was associated with a significant reduction of the concentration of liver triglycerides.

- KM for VLCAD enzymatic activity vs untreated homogenate (VLCAD [1]; eNOS-/- liver homogenates treated ex vivo (5 μM, 30 minutes)): increased five-fold
- S-nitrosylation of C238A VLCAD (C238A VLCAD mutant): not S-nitrosylated
- basal activity of C238A VLCAD (C238A VLCAD mutant): did not change
- S-nitrosylated fraction of wild-type VLCAD (wild-type VLCAD): 27±3%
- VLCAD-specific activity (wild-type VLCAD): fivefold increase
- fraction of VLCAD molecules in liver S-nitrosylated (VLCAD [2]): 25±3%
- apparent KM of PBS-injected ob/ob mice relative to GSNO-injected ob/ob mice (VLCAD [3]): more than fivefold higher
- Vmax of VLCAD (VLCAD [3]; vs wild-type and PBS-injected ob/ob mice): similar
Compound: N[C@@H](CCC(=O)N[C@@H](CSN=O)C(=O)NCC(=O)O)C(=O)O [GSNO, S-nitrosoglutathione]
- S-nitrosylation of VLCAD (VLCAD [1]; eNOS-/- liver homogenates treated ex vivo): readily modified ex vivo at cysteine residue Cys238
- fat deposits in liver slices (histology) (ob/ob mice; vs PBS-injected): fewer fat deposits
- liver triglyceride concentration (ob/ob mice; vs PBS-injected): significantly lowered
- serum triglyceride concentrations (ob/ob mice; vs wild-type and PBS-treated): similar
